15 substances from patent US5597899A, “Tumor necrosis factor muteins” (Hoffmann-La Roche Inc., priority 1993, dated 1997) can be followed below.

In experiment [1] the test system is human TNFR-p55. The experiment can be described thus: Solid phase radioligand competition binding assay, E. coli lysates, TNFR-p55. Particulars: for Dilution of E. coli Lysate for 50% Inhibition of 125I-TNFα Binding (ID50) TNFR-p55: 10-fold serial dilutions 10^-2 to 10^-7, < = inhibition but below 50% at 1:100, << = no measurable inhibition at 1:100; for ID50 TNFR-p55 / ID50 TNFR-p75: ratio = 1 no receptor selectivity, > 1 TNFR-p55 selectivity, < 1 TNFR-p75 selectivity. Here is the method:
(§1) After 20 min incubation at room temperature 50 μl of 1M MgCl2, 20 μl of 5 mg/ml DNaseI, 50 μl of 5M NaCl and 50 μl of 10% NP-40 were added and the mixture was further incubated at room temperature for 15 min. 0.5 ml of the lysate clarified by centrifugation at 13'000 rpm for 5 min was subjected to ammonium sulfate precipitation (25%-70% cut). The 70% ammonium sulfat pellet was dissolved in 0.2 ml PBS and analyzed by sodium dodecyl sulfate polyacrylamide gel electrophoresis (SDS-PAGE) to confirm presence and approximate amount of the recombinant proteins.
TNFα was labelled by the Iodogen method (Pierce Chemical Company) to a specific activity of about 10-30 μCi/μg. The volume was 100 μl/well and each lysate dilution was assayed in duplicate or triplicate. After three hours at room temperature the wells were thoroughly washed with PBS and counted in a γ-counter. The results are given in Table 2 for lysates comprising the muteins indicated therein.

Experiment [2] concerns human TNFR-p75. Put plainly: Solid phase radioligand competition binding assay, E. coli lysates, TNFR-p75. As to conditions: 10-fold serial dilutions 10^-2 to 10^-7, < = inhibition but below 50% at 1:100, << = no measurable inhibition at 1:100. Here is the method:
as §1, with “10 ml suspensions of E. coli cells transformed and induced as described in Examples I and II were centrifuged at 4'000 rpm for 10 min and resuspended in 0.9 ml of lysis buffer (10 mM Tris-HCl pH 8.0, 5 mM EDTA, 2 mM PMSF, 10 mM benzamidine, 200 units/ml aprotinine and 0.1 mg/ml lysozyme). After” for “After”
96 well microtiter plates were coated with recombinant human […] TNFR-p75-hγ3 and TNFR-p55-hγ3 fusion proteins (extracellular portion of the receptor fused to the Fc part of human IgG3) at a concentration of 0.3 μg/ml and 0.1 μg/ml, respectively, in phosphate buffered saline (PBS, 100 μl/well, overnight at 4° C.) [Loetscher, H. et al. J. Biol. Chem. 266, 18324-18329 (1991); Lesslauer, W. et al. Eur. J. Immunol. 21, 2883-2886 (1991)]. After blocking with blocking buffer (50 mM Tris pH 7.4, 140 mM NaCl, 5 mM EDTA, 0.02% NAN3, 1% defatted milk powder) the microtiter plate was washed with PBS and incubated in blocking buffer containing 0.1% defatted milk powder with 10 ng/ml human wild-type ^125 I-TNFα and various dilutions of E. coli lysates ranging from 10^-2 to 10^-7 (10-fold serial dilutions). TNFα was labelled by the Iodogen method (Pierce Chemical Company) to a specific activity of about 10-30 μCi/μg. The volume was 100 μl/well and each lysate dilution was assayed in duplicate or triplicate. After three hours at room temperature the wells were thoroughly washed with PBS and counted in a γ-counter. The results are given in Table 2 for lysates comprising the muteins indicated therein.

For the substance N34R: human TNFα mutein N34R, in experiment [1], the “Dilution of E. coli Lysate for 50% Inhibition of 125I-TNFα Binding (ID50) TNFR-p55” value is under 100 fold and the “ID50 TNFR-p55 / ID50 TNFR-p75” value is listed as over 1. For the same substance, the “Dilution of E. coli Lysate for 50% Inhibition of 125I-TNFα Binding (ID50) TNFR-p75” value in experiment [2] is recorded as under 100 fold.

As to N34T: human TNFα mutein N34T, in experiment [1], the “Dilution of E. coli Lysate for 50% Inhibition of 125I-TNFα Binding (ID50) TNFR-p55” value is listed as 1,000 fold and the “ID50 TNFR-p55 / ID50 TNFR-p75” value is listed as over 10. For the same substance, the “Dilution of E. coli Lysate for 50% Inhibition of 125I-TNFα Binding (ID50) TNFR-p75” value in experiment [2] is given as under 100 fold.

In the case of N34V: human TNFα mutein N34V, in experiment [1], the “Dilution of E. coli Lysate for 50% Inhibition of 125I-TNFα Binding (ID50) TNFR-p55” value is recorded as under 100 fold and the “ID50 TNFR-p55 / ID50 TNFR-p75” value is over 1. In addition, the “Dilution of E. coli Lysate for 50% Inhibition of 125I-TNFα Binding (ID50) TNFR-p75” value in experiment [2] was under 100 fold.

Turning to “N34Y: human TNFα mutein N34Y, listed twice (codons TAT and TAC)”, in experiment [1], the “Dilution of E. coli Lysate for 50% Inhibition of 125I-TNFα Binding (ID50) TNFR-p55” value is given as under 100 fold and the “ID50 TNFR-p55 / ID50 TNFR-p75” value is reported as over 1. Also, the “Dilution of E. coli Lysate for 50% Inhibition of 125I-TNFα Binding (ID50) TNFR-p75” value in experiment [2] was under 100 fold.

In the case of N92R: human TNFα mutein N92R, in experiment [1], the “Dilution of E. coli Lysate for 50% Inhibition of 125I-TNFα Binding (ID50) TNFR-p55” value is 5,000 fold and the “ID50 TNFR-p55 / ID50 TNFR-p75” value was 4. Further, in experiment [2], the “Dilution of E. coli Lysate for 50% Inhibition of 125I-TNFα Binding (ID50) TNFR-p75” value is 1,250 fold.

As to Q21S: human TNFα mutein Q21S, in experiment [1], the “Dilution of E. coli Lysate for 50% Inhibition of 125I-TNFα Binding (ID50) TNFR-p55” value was 2,500 fold and the “ID50 TNFR-p55 / ID50 TNFR-p75” value turned out to be 1. The “Dilution of E. coli Lysate for 50% Inhibition of 125I-TNFα Binding (ID50) TNFR-p75” value in experiment [2] was 2,500 fold.

With Q67K: human TNFα mutein Q67K, in experiment [1], the “Dilution of E. coli Lysate for 50% Inhibition of 125I-TNFα Binding (ID50) TNFR-p55” value is reported as 25,000 fold and the “ID50 TNFR-p55 / ID50 TNFR-p75” value stood at 0.5. In addition, the “Dilution of E. coli Lysate for 50% Inhibition of 125I-TNFα Binding (ID50) TNFR-p75” value in experiment [2] is reported as 50,000 fold.

In the case of Q67T: human TNFα mutein Q67T, in experiment [1], the “Dilution of E. coli Lysate for 50% Inhibition of 125I-TNFα Binding (ID50) TNFR-p55” value is 25,000 fold and the “ID50 TNFR-p55 / ID50 TNFR-p75” value was found to be 0.75. Further, the “Dilution of E. coli Lysate for 50% Inhibition of 125I-TNFα Binding (ID50) TNFR-p75” value in experiment [2] is given as 33,330 fold.

For Q67Y: human TNFα mutein Q67Y, in experiment [1], the “Dilution of E. coli Lysate for 50% Inhibition of 125I-TNFα Binding (ID50) TNFR-p55” value is 20,000 fold and the “ID50 TNFR-p55 / ID50 TNFR-p75” value is on record as 0.6. Also, in experiment [2], the “Dilution of E. coli Lysate for 50% Inhibition of 125I-TNFα Binding (ID50) TNFR-p75” value is listed as 33,330 fold.

For the substance R31E-S86T: human TNFα mutein R31E-S86T, in experiment [1], the “Dilution of E. coli Lysate for 50% Inhibition of 125I-TNFα Binding (ID50) TNFR-p55” value is on record as 2,000 fold and the “ID50 TNFR-p55 / ID50 TNFR-p75” value is recorded as over 20. Besides, in experiment [2], the “Dilution of E. coli Lysate for 50% Inhibition of 125I-TNFα Binding (ID50) TNFR-p75” value is under 100 fold.

Regarding R31E: human TNFα mutein R31E, in experiment [1], the “Dilution of E. coli Lysate for 50% Inhibition of 125I-TNFα Binding (ID50) TNFR-p55” value is given as 3,470 fold and the “ID50 TNFR-p55 / ID50 TNFR-p75” value is recorded as 19.3. In experiment [2], the “Dilution of E. coli Lysate for 50% Inhibition of 125I-TNFα Binding (ID50) TNFR-p75” value came to 180 fold.

For the substance R31K: human TNFα mutein R31K, in experiment [1], the “Dilution of E. coli Lysate for 50% Inhibition of 125I-TNFα Binding (ID50) TNFR-p55” value is listed as 3,330 fold and the “ID50 TNFR-p55 / ID50 TNFR-p75” value is 1. Besides, the “Dilution of E. coli Lysate for 50% Inhibition of 125I-TNFα Binding (ID50) TNFR-p75” value in experiment [2] was 3,330 fold.

For R31N-R32T: human TNFα mutein R31N-R32T, in experiment [1], the “Dilution of E. coli Lysate for 50% Inhibition of 125I-TNFα Binding (ID50) TNFR-p55” value is 3,260 fold and the “ID50 TNFR-p55 / ID50 TNFR-p75” value is over 32.6. Moreover, in experiment [2], the “Dilution of E. coli Lysate for 50% Inhibition of 125I-TNFα Binding (ID50) TNFR-p75” value is given as under 100 fold.

In the case of R32W-S86T: human TNFα mutein R32W-S86T, in experiment [1], the “Dilution of E. coli Lysate for 50% Inhibition of 125I-TNFα Binding (ID50) TNFR-p55” value is recorded as 3,330 fold and the “ID50 TNFR-p55 / ID50 TNFR-p75” value is listed as over 33.3. Moreover, the “Dilution of E. coli Lysate for 50% Inhibition of 125I-TNFα Binding (ID50) TNFR-p75” value in experiment [2] is reported as under 100 fold.

As for S86D: human TNFα mutein S86D, in experiment [1], the “Dilution of E. coli Lysate for 50% Inhibition of 125I-TNFα Binding (ID50) TNFR-p55” value was 6,670 fold and the “ID50 TNFR-p55 / ID50 TNFR-p75” value was 6.7. Moreover, the “Dilution of E. coli Lysate for 50% Inhibition of 125I-TNFα Binding (ID50) TNFR-p75” value in experiment [2] is on record as 1,000 fold.
